{"source": "patent US20230181614A1", "about": "“ADMINISTRATION OF CITICOLINE TO IMPROVE COGNITIVE PERFORMANCE, ATTENTIONAL PERFORMANCE, AND MOTOR FUNCTION” (KYOWA HAKKO BIO CO., LTD., priority 2014, published 2023)", "key": {"[1]": {"system": "Healthy subjects, ages 13-18", "assay": "Children's Depression Rating Scale (CDRS)", "assay_type": "in vivo, human", "conditions": "for CDRS Score, Mean: V3-V1", "from_the_text": "Study participants were screened by telephone prior to study enrollment. Healthy subjects, ages 13-18, with no significant medical conditions and no history of co-morbid psychiatric disorder, current Axis I or II diagnosis, or previous participation in a pharmacotherapeutic trial, were selected. Use of any psychotropic medication or any previous head injury resulting in loss of consciousness for 5 or more minutes were used as exclusion criteria. While no participant met criteria for a neuropsychiatric disorder at enrollment, clinical assessments were still completed throughout the study to evaluate changes in mood state. In addition, self-reports of sleep habits, lifestyle, and exercise routines were also administered at baseline as well as at each study visit to assess changes in health habits during study participation. Following the completion of Visit 1 assessment, participants were given their 28-day supply of citicoline (250 mg or 500 mg) or placebo, which was randomly assigned. They were instructed to take one capsule a day every day for the next 28 days. Visit 2 occurred fourteen days after Visit 1. At Visit 2, the remaining study pills were counted and participant dosage calendars were checked to ensure compliance with the protocol. Additional neuropsychological measures and clinical assessments were administered during this visit. Participants returned for Visit 3 fourteen days later, on the 28th day of their study participation. The pill bottle and the dosage calendar were collected from each participant. Urine and blood were again obtained. Participants also participated in similar clinical and neuropsychological testing and clinical measures that were given during visit 1. The CDRS is an investigator-administered scale that are widely used as observational measures of depressive symptoms in children. The scale was administered at each of the three visits to assess presence or absence of depressive symptoms."}, "[2]": {"system": "Healthy subjects, ages 13-18", "assay": "Exercise and Life Style Questionnaire", "assay_type": "in vivo, human", "set-up": "scale not given here", "conditions": "for Alcohol Q10 V1 Mean / Alcohol Q11 V1 Mean / Alcohol Q12 V1 Mean / Alcohol Total V1 Mean / Appetite Q5 V1 Mean / Appetite Q6 V1 Mean / Appetite Total V1 Mean / Exercise Q1 V1 Mean / Exercise Q2 V1 Mean / Exercise Q3 V1 Mean / Exercise Q4 V1 Mean / Exercise Total V1 Mean / Smoke Q7 V1 Mean / Smoke Q8 V1 Mean / Smoke Q9 V1 Mean / Smoke Total V1 Mean: Visit 1; for Alcohol Q10 V3 Mean / Alcohol Q11 V3 Mean / Alcohol Q12 V3 Mean / Alcohol Total V3 Mean / Appetite Q5 V3 Mean / Appetite Q6 V3 Mean / Appetite Total V3 Mean / Exercise Q1 V3 Mean / Exercise Q2 V3 Mean / Exercise Q3 V3 Mean / Exercise Q4 V3 Mean / Exercise Total V3 Mean / Smoke Q7 V3 Mean / Smoke Q8 V3 Mean / Smoke Q9 V3 Mean / Smoke Total V3 Mean: Visit 3", "from_the_text": "Study participants were screened by telephone prior to study enrollment. Healthy subjects, ages 13-18, with no significant medical conditions and no history of co-morbid psychiatric disorder, current Axis I or II diagnosis, or previous participation in a pharmacotherapeutic trial, were selected. Use of any psychotropic medication or any previous head injury resulting in loss of consciousness for 5 or more minutes were used as exclusion criteria. While no participant met criteria for a neuropsychiatric disorder at enrollment, clinical assessments were still completed throughout the study to evaluate changes in mood state. In addition, self-reports of sleep habits, lifestyle, and exercise routines were also administered at baseline as well as at each study visit to assess changes in health habits during study participation. Following the completion of Visit 1 assessment, participants were given their 28-day supply of citicoline (250 mg or 500 mg) or placebo, which was randomly assigned. They were instructed to take one capsule a day every day for the next 28 days. Visit 2 occurred fourteen days after Visit 1. At Visit 2, the remaining study pills were counted and participant dosage calendars were checked to ensure compliance with the protocol. Additional neuropsychological measures and clinical assessments were administered during this visit. Participants returned for Visit 3 fourteen days later, on the 28th day of their study participation. The pill bottle and the dosage calendar were collected from each participant. Urine and blood were again obtained. Participants also participated in similar clinical and neuropsychological testing and clinical measures that were given during visit 1. The General Questionnaire and Exercise and Life Style Questionnaire are self-report questionnaires designed to assess a variety of symptoms, behaviors, and self-perceptions, including mood, complexion, exercise, food, and alcohol habits of each of the participants. The General Questionnaire was administered during each of the three study visits; the Exercise and Life Style Questionnaire was administered during each of the three study visits. The Exercise/Lifestyle Questionnaire included four summary categories (Exercise, Appetite, Smoke, and Alcohol), each of which consisted of multiple individual items. Within and between group analyses are reported below for each of the summary categories."}}, "note": "Where “and” joins values, the source holds several entries; their conditions need not be identical. Identical values can stand only once.", "data": [{"smiles": "C[N+](C)(C)CCOP(=O)(O)OP(=O)([O-])OC[C@H]1O[C@@H](n2ccc(N)nc2=O)[C@H](O)[C@@H]1O", "note": "[citicoline, Cytidine 5′-diphosphocholine]", "values": [{"measurement": "CDRS, Mean", "setting": "[1]; 250 mg/day, V1 (baseline)", "result": 16.89}, {"measurement": "CDRS, Mean", "setting": "[1]; 250 mg/day, V3 (day 28)", "result": 16.22}, {"measurement": "CDRS Score, Mean", "setting": "[1]; 250 mg/day", "result": -0.67}, {"measurement": "CDRS, Mean", "setting": "[1]; 500 mg/day, V1 (baseline)", "result": 16.33}, {"measurement": "CDRS, Mean", "setting": "[1]; 500 mg/day, V3 (day 28)", "result": 16.08}, {"measurement": "CDRS Score, Mean", "setting": "[1]; 500 mg/day", "result": -0.25}, {"measurement": "Alcohol Total V3-V1 Mean", "setting": "[2]; 250 mg/day", "result": 0.00}, {"measurement": "Appetite Total V3-V1 Mean", "setting": "[2]; 250 mg/day", "result": -0.59}, {"measurement": "Exercise Total V3-V1 Mean", "setting": "[2]; 250 mg/day", "result": -0.78}, {"measurement": "Smoke Total V3-V1 Mean", "setting": "[2]; 250 mg/day", "result": -0.07}, {"measurement": "Alcohol Q10 V1 Mean", "setting": "[2]; 250 mg/day", "result": 0.07}, {"measurement": "Alcohol Q11 V1 Mean", "setting": "[2]; 250 mg/day", "result": 1.00}, {"measurement": "Alcohol Q12 V1 Mean", "setting": "[2]; 250 mg/day", "result": 1.00}, {"measurement": "Alcohol Total V1 Mean", "setting": "[2]; 250 mg/day", "result": 2.07}, {"measurement": "Appetite Q5 V1 Mean", "setting": "[2]; 250 mg/day", "result": 4.11}, {"measurement": "Appetite Q6 V1 Mean", "setting": "[2]; 250 mg/day", "result": 4.44}, {"measurement": "Appetite Total V1 Mean", "setting": "[2]; 250 mg/day", "result": 8.56}, {"measurement": "Exercise Q1 V1 Mean", "setting": "[2]; 250 mg/day", "result": 1.15}, {"measurement": "Exercise Q2 V1 Mean", "setting": "[2]; 250 mg/day", "result": 6.35}, {"measurement": "Exercise Q3 V1 Mean", "setting": "[2]; 250 mg/day", "result": 3.56}, {"measurement": "Exercise Q4 V1 Mean", "setting": "[2]; 250 mg/day", "result": 3.81}, {"measurement": "Exercise Total V1 Mean", "setting": "[2]; 250 mg/day", "result": 14.87}, {"measurement": "Smoke Q7 V1 Mean", "setting": "[2]; 250 mg/day", "result": 0.00}, {"measurement": "Smoke Q8 V1 Mean", "setting": "[2]; 250 mg/day", "result": 1.00}, {"measurement": "Smoke Q9 V1 Mean", "setting": "[2]; 250 mg/day", "result": 1.07}, {"measurement": "Smoke Total V1 Mean", "setting": "[2]; 250 mg/day", "result": 2.08}, {"measurement": "Alcohol Q10 V3 Mean", "setting": "[2]; 250 mg/day", "result": 0.07}, {"measurement": "Alcohol Q11 V3 Mean", "setting": "[2]; 250 mg/day", "result": 1.00}, {"measurement": "Alcohol Q12 V3 Mean", "setting": "[2]; 250 mg/day", "result": 1.00}, {"measurement": "Alcohol Total V3 Mean", "setting": "[2]; 250 mg/day", "result": 2.07}, {"measurement": "Appetite Q5 V3 Mean", "setting": "[2]; 250 mg/day", "result": 4.15}, {"measurement": "Appetite Q6 V3 Mean", "setting": "[2]; 250 mg/day", "result": 3.81}, {"measurement": "Appetite Total V3 Mean", "setting": "[2]; 250 mg/day", "result": 7.96}, {"measurement": "Exercise Q1 V3 Mean", "setting": "[2]; 250 mg/day", "result": 1.07}, {"measurement": "Exercise Q2 V3 Mean", "setting": "[2]; 250 mg/day", "result": 6.80}, {"measurement": "Exercise Q3 V3 Mean", "setting": "[2]; 250 mg/day", "result": 3.11}, {"measurement": "Exercise Q4 V3 Mean", "setting": "[2]; 250 mg/day", "result": 3.11}, {"measurement": "Exercise Total V3 Mean", "setting": "[2]; 250 mg/day", "result": 14.09}, {"measurement": "Smoke Q7 V3 Mean", "setting": "[2]; 250 mg/day", "result": 0.00}, {"measurement": "Smoke Q8 V3 Mean", "setting": "[2]; 250 mg/day", "result": 1.00}, {"measurement": "Smoke Q9 V3 Mean", "setting": "[2]; 250 mg/day", "result": 1.00}, {"measurement": "Smoke Total V3 Mean", "setting": "[2]; 250 mg/day", "result": 2.00}, {"measurement": "Alcohol Total V3-V1 Mean", "setting": "[2]; 500 mg/day", "result": 0.00}, {"measurement": "Appetite Total V3-V1 Mean", "setting": "[2]; 500 mg/day", "result": -0.83}, {"measurement": "Exercise Total V3-V1 Mean", "setting": "[2]; 500 mg/day", "result": -2.78}, {"measurement": "Smoke Total V3-V1 Mean", "setting": "[2]; 500 mg/day", "result": 0.00}, {"measurement": "Alcohol Q10 V1 Mean", "setting": "[2]; 500 mg/day", "result": 0.00}, {"measurement": "Alcohol Q11 V1 Mean", "setting": "[2]; 500 mg/day", "result": 1.00}, {"measurement": "Alcohol Q12 V1 Mean", "setting": "[2]; 500 mg/day", "result": 1.00}, {"measurement": "Alcohol Total V1 Mean", "setting": "[2]; 500 mg/day", "result": 2.00}, {"measurement": "Appetite Q5 V1 Mean", "setting": "[2]; 500 mg/day", "result": 3.96}, {"measurement": "Appetite Q6 V1 Mean", "setting": "[2]; 500 mg/day", "result": 3.25}, {"measurement": "Appetite Total V1 Mean", "setting": "[2]; 500 mg/day", "result": 7.21}, {"measurement": "Exercise Q1 V1 Mean", "setting": "[2]; 500 mg/day", "result": 1.17}, {"measurement": "Exercise Q2 V1 Mean", "setting": "[2]; 500 mg/day", "result": 8.50}, {"measurement": "Exercise Q3 V1 Mean", "setting": "[2]; 500 mg/day", "result": 3.71}, {"measurement": "Exercise Q4 V1 Mean", "setting": "[2]; 500 mg/day", "result": 3.75}, {"measurement": "Exercise Total V1 Mean", "setting": "[2]; 500 mg/day", "result": 17.24}, {"measurement": "Smoke Q7 V1 Mean", "setting": "[2]; 500 mg/day", "result": 0.00}, {"measurement": "Smoke Q8 V1 Mean", "setting": "[2]; 500 mg/day", "result": 1.00}, {"measurement": "Smoke Q9 V1 Mean", "setting": "[2]; 500 mg/day", "result": 1.00}, {"measurement": "Smoke Total V1 Mean", "setting": "[2]; 500 mg/day", "result": 2.00}, {"measurement": "Alcohol Q10 V3 Mean", "setting": "[2]; 500 mg/day", "result": 0.00}, {"measurement": "Alcohol Q11 V3 Mean", "setting": "[2]; 500 mg/day", "result": 1.00}, {"measurement": "Alcohol Q12 V3 Mean", "setting": "[2]; 500 mg/day", "result": 1.00}, {"measurement": "Alcohol Total V3 Mean", "setting": "[2]; 500 mg/day", "result": 2.00}, {"measurement": "Appetite Q5 V3 Mean", "setting": "[2]; 500 mg/day", "result": 3.50}, {"measurement": "Appetite Q6 V3 Mean", "setting": "[2]; 500 mg/day", "result": 2.88}, {"measurement": "Appetite Total V3 Mean", "setting": "[2]; 500 mg/day", "result": 6.38}, {"measurement": "Exercise Q1 V3 Mean", "setting": "[2]; 500 mg/day", "result": 1.13}, {"measurement": "Exercise Q2 V3 Mean", "setting": "[2]; 500 mg/day", "result": 7.54}, {"measurement": "Exercise Q3 V3 Mean", "setting": "[2]; 500 mg/day", "result": 2.96}, {"measurement": "Exercise Q4 V3 Mean", "setting": "[2]; 500 mg/day", "result": 2.75}, {"measurement": "Exercise Total V3 Mean", "setting": "[2]; 500 mg/day", "result": "14.46 and 14.48"}, {"measurement": "Smoke Q7 V3 Mean", "setting": "[2]; 500 mg/day", "result": 0.00}, {"measurement": "Smoke Q8 V3 Mean", "setting": "[2]; 500 mg/day", "result": 1.00}, {"measurement": "Smoke Q9 V3 Mean", "setting": "[2]; 500 mg/day", "result": 1.00}, {"measurement": "Smoke Total V3 Mean", "setting": "[2]; 500 mg/day", "result": 2.00}]}]}
